SMILES strings stand for the structures. Where only a bound is given, the exact number is not on record here.

Consider `Cc1n[nH]c(-c2ccc(Br)cc2)c1NC(=O)c1ccccc1`, for which the melting point lay in the range of 273 to 274 °C.
The same measure for `Cc1ccc(-c2nn3cccnc3c2CC(N)=O)cc1`: 225 to 226 °C; for `CC(=O)N1CCc2cc(S(=O)(=O)n3c(COC(C)(C)C(=O)O)cc4cc(C(F)(F)F)ccc43)ccc21`: 176 to 178 °C; for `Nc1ccc(-c2ccnc(-c3ccc(C(F)(F)F)cc3)n2)cc1`: 166 to 167 °C.
The same measure for `Cc1ccc(-c2nn(-c3cccc4ccccc34)c(N)c2C(N)=O)cc1`: 195 °C; for `O=C(CCC(F)([N+](=O)[O-])[N+](=O)[O-])NNC(=O)C(F)(F)C(F)(F)C(F)(F)F`: 143 to 144 °C.
The same measure for `Cc1c(NC(=O)CC(C)(C)C)c(C)c2c(c1-c1c[nH]cn1)OCC2c1ccc(C(C)C)cc1` (stereo unspecified): 277 to 279 °C.
In turn, `COc1ccnc(CSc2nc3cc4c(cc3[nH]2)OC(F)(F)O4)c1OC` registered a melting point of 185 to 187 °C.
For `CCCc1nn(C)c2c(=O)n(CCCOc3ccc(SC(C)(C)C(=O)OCC)cc3)c(C)nc12` the value was 52 to 54 °C; for `Oc1ccc(Nc2n[nH]c3ncnc(Nc4cccc(Cl)c4)c23)cc1`, greater than 260 °C; for `Fc1cc(Cl)c(Br)c(Cl)c1`, 83 °C.
For `Cc1ccc(Oc2cccc(C#CC(C)N(O)C(N)=O)c2)cc1F` (stereo unspecified), the melting point lay in the range of 128 to 130 °C.
Regarding `COc1nc(C)nc(NC(=O)NS(=O)(=O)c2cccnc2OC2CCCC2)n1`, the melting point was 170 to 172 °C.
The molecule `COC1CC(OC)(OC)C(=O)O1` (stereo unspecified) registered a melting point of 55 °C.
The same measure for `CS(=O)(=O)CCCCC(c1cc(Cl)ccc1F)S(=O)(=O)c1ccc(Cl)cc1` (stereo unspecified): 116 to 117 °C; for `COCOc1ccc2cc(C=O)ccc2c1`: 52 to 54 °C; for `COc1ccc(CCc2nnc(-c3ccc4[nH]ncc4c3)o2)cc1C(F)(F)F`: 192 to 193 °C.
Turning to `O=C(c1cccc2cc[nH]c12)N1CCN(c2ccccc2)CC1`, the melting point lay in the range of 217 to 219 °C.
The same measure for `CCCCc1nc(Cl)c(CN2CCN(c3ccccc3OC)CC2)n1Cc1ccc(-c2ccccc2-c2nnn[nH]2)cc1`: 154 to 158 °C; for `CCc1nc2c(cnn2CC)c(NC2CCOCC2)c1CNC(=O)c1cc(C)cc(C(=O)NCc2cccc(-c3cccc(CC4CCN(C)CC4)c3)c2)c1`: 119 to 121 °C; for `CC(=O)Nc1cccc(-n2nc(C(C)C)c(=O)n(Cc3ccc(Cl)cc3)c2=O)c1`: 178 °C.
The same measure for `CCOC(=O)c1c(C)nc2c(C(F)(F)F)cccc2c1O`: 165 °C; for `COc1ccc(Nc2ccccc2C(=O)N2CCCCC2)cc1`: 106 to 108 °C.
For `CCc1nc(N)nc(N)c1-c1ccc(N(Cc2ccccc2)Cc2ccccc2)c([N+](=O)[O-])c1` the value was 197 to 199 °C; for `O=c1c2cc(F)c(N3CCCC3)c(F)c2n(C2CC2)c(=O)n1O`, 228 to 230 °C.
Consider `O=C1Nc2ccc(Cl)c(Cl)c2C(=O)N2CCC[C@@H]12`, for which the melting point was in the range of 203 to 205 °C.
The same measure for `Cn1ncc2c1-c1c(Oc3cccnc3OCCN3CCCC3=O)sc(C(=O)O)c1CC2`: 202 to 204 °C; for `CCCCn1nnc(NCc2ccc(-c3ccccc3-c3nnn[nH]3)cc2)c1C(=O)O`: 154 to 155 °C.
For `c1cc(-c2ccncc2)c2sccc2c1` the value was 71 to 72 °C; for `N#Cc1cccc(C2=NN(C(=O)Nc3ccc(OC(F)(F)F)cc3)CCC2n2cc(Cl)cn2)c1` (stereo unspecified), 216 °C.
The same measure for `COC(=O)C(=O)Nc1c(-c2ccccc2)c(=O)[nH]c2cc(Cl)ccc12`: 240 °C; for `CC1Cc2cc(Br)ccc2C1=O` (stereo unspecified): 55 °C; for `COc1ccc(C2=NN(C3CCN(S(=O)(=O)c4ccccc4OC(F)(F)F)CC3)C(=O)CC2)cc1OC`: 118 to 119 °C.
The molecule `COc1ccc(C(C)=O)cc1C=CC(=O)O` gave a melting point of 203 °C.
For `CCOC(=O)Cn1c(=O)c(C#N)c(N2CCN(C(=O)c3cccs3)CC2)c2cccnc21` the value was 236 °C.
The molecule `COCCOC(=O)C1=C(C)NN=C(C(=O)OC(C)C)C1c1cccc([N+](=O)[O-])c1` (stereo unspecified) gave a melting point of 146 to 148 °C.
The same measure for `c1nc(Nc2ccc3[nH]ccc3c2)c2sc(-c3ccc(CNC4CC4)cc3)cc2n1`: 176 to 180 °C.
The same measure for `N#CC(C#N)C(=O)c1ccoc1`: 98 to 99 °C; for `O=C(O)C1(c2cccc(C(F)(F)F)c2)CCN(Cc2ccccc2)CC1`: 243 °C.
As for `CCSc1nc2c(C(=O)OC)sc(C)c2[nH]1`, the melting point was in the range of 159 to 160 °C.
The same measure for `c1cc2cc(CSc3nnc(-c4ccc5c(c4)CCO5)o3)ccc2o1`: 145 to 147 °C.
In turn, `Cc1c(Cl)nnc2c1CN(C(=O)c1ccccc1F)CC2` yielded a melting point of 151 to 153 °C.
Molecule `CCC(C)(C)N=NC(C)(C#N)CCC(=O)O` (stereo unspecified) came in with a melting point of 60 to 62 °C.
The same measure for `CCc1ncc(CCCOc2c(C)cc(-c3noc(C)n3)cc2C)s1`: 43 to 45 °C.
The same measure for `CNc1n[nH]c(=O)n1N`: 214 °C; for `C[C@@H](n1cnc2cc(Br)ccc2c1=O)[C@](O)(Cn1cncn1)c1ccc(F)cc1F`: 109 to 112 °C; for `CC(=O)NC[C@H]1CN(c2ccc(N3CCC(n4cc(CO)nn4)CC3)c(F)c2)C(=O)O1`: 160 to 162 °C.
For `COc1ccc(F)cc1C(C)(C)CC(O)(Cn1ccc(=N)c2ccccc21)C(F)(F)F` (stereo unspecified) the value was 137 to 140 °C.
Regarding `O=C(OCc1ccccc1)N1CCN(c2ccccc2)CC1`, the melting point was in the range of 49 to 51 °C.
For `CCCc1nn(-c2ccc(C(F)(F)F)cn2)cc1CCCOc1cc(CCC(=O)O)ccc1OC` the value was 147 to 148 °C; for `C#CCNC(=NCCSCc1csc(NC(=N)N)n1)NC#N`, 146 to 148 °C; for `O=Cc1ccc(N2CCC(O)CC2)cc1`, 115 to 118 °C.
For `Cc1oc(/C=C/c2ccccc2)nc1COc1ccc(CCCn2ccnc2)cc1` the value was 94 to 95 °C; for `CCCCCOC(=O)Nc1ccc(CN2C(=O)CCc3c(CC4SC(=O)NC4=O)ccc(OC)c32)cc1` (stereo unspecified), 98 to 102 °C; for `CCOC(=O)C(=CNc1cccc(-c2ccncc2)c1)C(C)=O`, 107 to 108 °C.
On to `Cc1nc(C)c(I)nc1C`, for which the melting point lay in the range of 59 to 63 °C.
The same measure for `FC(F)(F)c1nc2ccc(Cn3ccnc3)cc2n1CC1CCCCC1`: 165 °C; for `CN(CCP(O)O)c1cc(Oc2ccc(C(F)(F)F)cc2Cl)ccc1[N+](=O)[O-]`: 161 to 164 °C; for `O=C(O)c1cccc(NC(=O)[C@H](CO)NS(=O)(=O)c2ccc(Cl)cc2)c1`: 220 to 224 °C.
The same measure for `CCOc1cc2nc(CCl)nc(Cl)c2cc1OCC`: 109 to 112 °C; for `Cc1nc(-c2ccc(N(C)C)cc2)sc1C(=O)O`: 226 to 231 °C; for `CNc1nc(-c2ccc3c(c2)NC(=O)CO3)c(-c2ccccc2)s1`: 236 to 248 °C.
For `CCCCCc1ccc(C(=O)Nc2ccc3cc(CN4CCCC4)cnc3c2C)cc1` the value was 121 °C; for `CCc1ccc(/C=C/c2cc(OC)c(OC)c(OC)c2)cc1`, 98 to 100 °C.
`O=C1CCC(n2cnc(-c3ccc(F)cc3)c2-c2ccnc(Nc3ccccc3)n2)CC1` showed a melting point of 205 to 207 °C.
Molecule `CC(C)(C)OC(=O)NCc1ccc(N2CC(C(=O)N3CCN(CCC(=O)OCc4ccccc4)CC3)OC2=O)cc1` (stereo unspecified) returned a melting point of 128 to 130 °C.
The same measure for `COc1cc2c(cc1OC)-c1cc(Cl)nc(=O)n1CC2`: 235 to 236 °C; for `CN1CCN(C(=O)[C@H]2CC[C@H](c3[nH]nc4c3C(=O)c3c(NC(=O)NN5CCOCC5)cccc3-4)CC2)CC1`: 228 to 230 °C; for `Cc1c(CO)nc2c(OCc3ccccc3)cccn12`: 172 to 175 °C.
For `CSC1=N[C@@H](c2ccccc2)[C@H](c2ccccc2)N1` (relative stereo) the value was 132 to 134 °C; for `CCCCCCCCCOC1C(O)C(CO)OC1n1cnc2c(=O)[nH]c(N)nc21` (stereo unspecified), 258 to 259 °C.
The same measure for `CC(=O)Nc1cc(O)c(C(=O)CCCCCl)cc1Cl`: 126 to 128 °C.
Regarding `COc1cccc(CC(=O)O)c1OCCc1cn(-c2ccc(C(F)(F)F)cn2)nc1C(C)C`, the melting point lay within 165 to 166 °C.
The same measure for `COc1ccc(C[C@H](CC(=O)N2CCOCC2)C(=O)OCc2ccccc2)cc1`: 77 to 79 °C; for `CC(C)(C)OC(=O)N(O)C(=O)CN`: 115 to 117 °C; for `CCCN1CCC(=O)C2=C1COc1ccc(OC)cc12`: 97 to 100 °C.
For `CCN(CC)c1cccc2c1OC1(CC1)C2=O` the value was 39.3 °C; for `CN(CCF)c1ccc2cc(-c3nc4ccccc4s3)c(=O)oc2c1`, 231 to 233 °C; for `O=C1CNc2ncc(-c3cccnc3)cc2N1Cc1ccccc1`, 58 °C.
For `CC1(c2c[nH]cn2)CCCCC1` the value was 73 to 75 °C; for `CCCN(C)c1ncc2cc(-c3ccc(C(=O)N4CCN(C)CC4)cc3)[nH]c2n1`, 222 to 224 °C; for `O=C1CC(c2ccc(Br)cc2)Oc2ccc(Br)cc21` (stereo unspecified), 115 to 117 °C.
With `CSc1ccc2c(c1)CC(C)(C)C(=O)N2`, the melting point stood at 154 °C.
`CCSc1c(N)cnc2cc(Cl)ccc12`: the melting point lay in the range of 105 to 106 °C.
For `N#Cc1sc(-c2ccccc2)nc1N` the value was 178 to 179 °C; for `Nc1ccncc1Nc1cccc2cc[nH]c12`, 68 to 70 °C; for `NS(=O)(=O)c1ccccc1Cc1nnc(S)s1`, 173 to 197 °C.
For `CCCOC(=O)Cc1cc(O)c(C)cc1O` the value was 101 °C; for `O=C(N1CCNCC1)N1CCC(c2ccncc2)CC1`, 116 to 117 °C; for `COc1nc(SC)cnc1NS(=O)(=O)c1cccc(Cl)c1Cl`, 141 to 142 °C.
For `CN(C)c1ccc2sc(C=O)cc2c1` the value was 105 to 106 °C.

These data come from a melting point compilation (Tetko et al.; mined from patent text by program, amines drawn as free bases though some values may be those of a salt).
